Assay results reported in patent US20230330069A1, “USE OF THIAZOLIDES AGAINST CORONAVIRUSES” (Romark Laboratories, L.C., priority 2020, published 2023).
Like-named read-outs stand apart in the source and are kept apart here.

Experiments:
[1] = Example 1 trial: adverse events / tolerability; type: in vivo, human; conditions: 600 mg orally twice daily
COVID-19 = conditions: 600 mg twice daily for seven days; hospitalized moderate to severe COVID-19; cited from earlier work
[2] = Example 5 trial: safety analyses (adverse events); conditions: one severe COVID-19, one aspiration (SARS-CoV-2 negative); not considered related to study medication
Text: (§1) After randomization, eligible subjects underwent a physical examination, collection of nasopharyngeal swabs, and blood and urine samples for laboratory safety testing and assessment of SARS-CoV-2 antibody titers. Study drug was dispensed, and subjects were followed for 28 days. Subjects were instructed to complete electronic diaries recording oral temperature twice daily and symptom severity once daily in the evening for 21 days and were contacted daily by telephone by site staff on study days 2-7 and 28 to verify compliance and screen for progression to severe illness or other complications. Repeat nasopharyngeal swabs were collected on study days 4 and 10. Follow up blood and urine samples for laboratory safety testing and assessment of SARS-CoV-2 antibody titers were collected on study day 22. Subjects were allowed to use acetaminophen and/or dextromethorphan for symptom relief along with standard-of-care rescue medications. Adverse events were collected continuously throughout the study and monitored until the events resolved.
(§2) Efficacy analyses were based on a modified intention to treat (mITT) population of subjects testing positive for SARS-CoV-2 at baseline.

SARS-CoV-2 RNA = type: in vivo; conditions: for Mean (SD) Viral Load Change from Baseline / Percent Positive for SARS-CoV-2 RNA: nasopharyngeal swabs; for Percent Positive for SARS-CoV-2 RNA: 177 samples
[3] = in vivo
Text: as §1, §2

SARS-CoV-2 = type: in vivo
[4] = 133 subjects with moderate illness at baseline
[5] = all SARS-CoV-2-positive subjects (mITT)
[6] = all SARS-CoV-2-positive subjects (mITT), 600 mg twice daily for 5 days
[7] = all SARS-CoV-2-positive subjects (mITT), listed as NTZ
[8] = all SARS-CoV-2-positive subjects (mITT), listed as nitazoxanide
[9] = subgroup 'May Be' or 'At Increased Risk' for severe COVID-19 per CDC (protocol-defined stratification factor)
[10] = subgroup At High Risk of progressing to severe COVID-19 and/or hospitalization (per EUA documents for monoclonal antibodies)
[11] = subgroup At Increased Risk for severe COVID-19 per CDC

**Q.** With `CC(=O)Oc1ccccc1C(=O)Nc1ncc([N+](=O)[O-])s1` [Nitazoxanide, 2-(acetolyloxy)-N-(5-nitro-2-thiazolyl) benzamide] as the compound, how does the “adverse event: mild chromaturia, subjects” value ([1]; placebo 1.0%) read?
**A.** Its value is 14.6%.

**Q.** And the “adverse event: diarrhea, subjects” value ([1]; placebo 4.9%)?
**A.** Its value is 6.6%.

**Q.** What about the “duration of supplemental oxygen vs placebo” value (COVID-19) of the same compound?
**A.** Its value is “reductions”.

**Q.** What about the “rate of mechanical ventilation vs placebo” value (COVID-19) of the same compound?
**A.** The value was “reductions”.

**Q.** And the “rate of mortality vs placebo” value (COVID-19)?
**A.** The value was “reductions”.

**Q.** And the “time to hospital discharge vs placebo” value (COVID-19)?
**A.** Its value is “reductions”.

**Q.** What about the “subjects who died during the study” value [2] of the same compound?
**A.** The value was “Two”.

**Q.** What about the “Mean (SD) Viral Load Change from Baseline” value (SARS-CoV-2 RNA; Day 4) of the same compound?
**A.** Its value is −0.70 (1.573) log10 copies/mL.

**Q.** And the “Percent Positive for SARS-CoV-2 RNA” value (SARS-CoV-2 RNA; Day 4)?
**A.** The value was 94%.

**Q.** What about the “Mean (SD) Viral Load Change from Baseline” value (SARS-CoV-2 RNA; Day 10) of the same compound?
**A.** Its value is −2.49 (1.582) log10 copies/mL.

**Q.** And the “Percent Positive for SARS-CoV-2 RNA” value (SARS-CoV-2 RNA; Day 10)?
**A.** The value was 73%.

**Q.** What about the “Viral Load Day 4” value (SARS-CoV-2 RNA; single NTZ-treated subject who progressed to severe COVID-19, Day 1 value 7.39) of the same compound?
**A.** Its value is 7.39/4.79 log10 RNA copies/mL.

**Q.** And the “subjects reporting at least one adverse event (%)” value ([3]; human)?
**A.** The value was 13.3%.

**Q.** And the “subjects reporting diarrhea (%)” value ([3]; human)?
**A.** The value was 3.4%.

**Q.** And the “subjects reporting at least one adverse event (number)” value [3]?
**A.** The value was “Sixty-three”.

**Q.** What about the “subjects reporting serious adverse events” value [3] of the same compound?
**A.** Its value is “Two”.

**Q.** And the “subjects who discontinued study medication due to adverse events” value [3]?
**A.** The value was “Two”.

**Q.** What about the safety and tolerability ([3]; po) of the same compound?
**A.** The safety and tolerability was “safe and well tolerated”.

**Q.** What about the “subjects progressing to severe illness” value (SARS-CoV-2; 68 subjects with moderate illness at baseline in nitazoxanide arm, placebo two of 65) of the same compound?
**A.** The value was “None and none”.

**Q.** And the TSR vs placebo (SARS-CoV-2; [4])?
**A.** The TSR vs placebo was “longer”.

**Q.** What about the “time to return to usual health vs placebo” value (SARS-CoV-2; [4]) of the same compound?
**A.** The value was “longer”.

**Q.** What about the “relative reduction in rate of hospitalization, emergency room visit or death vs placebo” value (“relative reduction in rate” below) (SARS-CoV-2; [5]) of the same compound?
**A.** The value was 82%.

**Q.** And the “relative reduction of progression to severe COVID-19 vs placebo” value (from here on “relative reduction of progression”) (SARS-CoV-2; [5])?
**A.** Its value is 85%.

**Q.** What about the “subjects experiencing hospitalization, emergency room visit or death (%)” value (“subjects experiencing hospitalization … (%)” for short) (SARS-CoV-2; [5]) of the same compound?
**A.** The value was 0.5%.

**Q.** And the “subjects experiencing hospitalization, emergency room visit or death (n/N)” value (from here on “subjects experiencing hospitalization … (n/N)”) (SARS-CoV-2; [5])?
**A.** The value was 1/184.

**Q.** And the “subjects progressing to severe COVID-19 (%)” value (from here on “subjects progressing … (%)”) (SARS-CoV-2; [6])?
**A.** The value was 0.5%.

**Q.** What about the “subjects progressing to severe COVID-19 (n/N)” value (shortened to “subjects progressing … (n/N)”) (SARS-CoV-2; [6]) of the same compound?
**A.** Its value is 1/184.

**Q.** And the “subjects progressing … (%)” value (SARS-CoV-2; all SARS-CoV-2-positive subjects (mITT), 600 mg twice daily for 5 days, listed as NTZ)?
**A.** The value was “(0.5%)”.

**Q.** What about the “subjects progressing … (%)” value (SARS-CoV-2; all SARS-CoV-2-positive subjects (mITT), 600 mg twice daily for 5 days, listed as nitazoxanide) of the same compound?
**A.** Its value is 0.5%.

**Q.** And the “relative reduction in rate” value (SARS-CoV-2; [7])?
**A.** Its value is 82%.

**Q.** And the “relative reduction of progression” value (SARS-CoV-2; [7])?
**A.** The value was 85%.

**Q.** And the “subjects experiencing hospitalization … (%)” value (SARS-CoV-2; [7])?
**A.** The value was “(0.5%)”.

**Q.** And the “relative reduction in rate” value (SARS-CoV-2; [8])?
**A.** The value was 82%.

**Q.** What about the “relative reduction of progression” value (SARS-CoV-2; [8]) of the same compound?
**A.** The value was 85%.

**Q.** And the “Median (IQR) time from first dose to sustained response (TSR)” value (SARS-CoV-2; all mITT subjects, placebo 12.35 (7.18->21), p=0.88)?
**A.** Its value is 13.28 (6.26->21) days.

**Q.** What about the “relative reduction in rate” value (SARS-CoV-2; [9]) of the same compound?
**A.** The value was 81%.

**Q.** And the “relative reduction of progression” value (SARS-CoV-2; [9])?
**A.** The value was 84%.

**Q.** What about the “subjects experiencing hospitalization … (%)” value (SARS-CoV-2; [9]) of the same compound?
**A.** Its value is “(0.9%)”.

**Q.** And the “subjects experiencing hospitalization … (n/N)” value (SARS-CoV-2; [9])?
**A.** Its value is 1/112.

**Q.** And the “subjects progressing … (%)” value (SARS-CoV-2; [9])?
**A.** Its value is “(0.9%)”.

**Q.** And the “subjects progressing … (n/N)” value (SARS-CoV-2; [9])?
**A.** The value was 1/112.

**Q.** And the “relative reduction in rate” value (SARS-CoV-2; [10])?
**A.** Its value is 77%.

**Q.** What about the “relative reduction of progression” value (SARS-CoV-2; [10]) of the same compound?
**A.** The value was 81%.

**Q.** And the “subjects experiencing hospitalization … (%)” value (SARS-CoV-2; [10])?
**A.** The value was “(1.7%)”.

**Q.** What about the “subjects experiencing hospitalization … (n/N)” value (SARS-CoV-2; [10]) of the same compound?
**A.** Its value is 1/60.

**Q.** What about the “subjects progressing … (%)” value (SARS-CoV-2; [10]) of the same compound?
**A.** The value was “(1.7%)”.

**Q.** And the “subjects progressing … (n/N)” value (SARS-CoV-2; [10])?
**A.** Its value is 1/60.

**Q.** What about the “relative reduction in rate” value (SARS-CoV-2; [11]) of the same compound?
**A.** The value was 81%.

**Q.** And the “relative reduction of progression” value (SARS-CoV-2; [11])?
**A.** The value was 83%.

**Q.** And the “subjects experiencing hospitalization … (%)” value (SARS-CoV-2; [11])?
**A.** Its value is “(1.0%)”.

**Q.** And the “subjects experiencing hospitalization … (n/N)” value (SARS-CoV-2; [11])?
**A.** Its value is 1/104.

**Q.** And the “subjects progressing … (%)” value (SARS-CoV-2; [11])?
**A.** The value was “(1.0%)”.

**Q.** What about the “subjects progressing … (n/N)” value (SARS-CoV-2; [11]) of the same compound?
**A.** Its value is 1/104.

**Q.** And the “median TSR” value (SARS-CoV-2; subjects with mild illness at baseline, n=116, placebo 13.4)?
**A.** The value was 10.3 days.

**Q.** What about the “reduction of median time to return to usual health vs placebo” value (SARS-CoV-2; subjects with mild illness at baseline, p=0.0075) of the same compound?
**A.** The value was 5.2 days.

**Q.** And the “reduction of median TSR (time to sustained clinical recovery) vs placebo” value (SARS-CoV-2; subjects with mild illness at baseline, p=0.0932)?
**A.** Its value is 3.1 days.

**Q.** And the “median time from first dose until subjects reported returning to usual health” value (SARS-CoV-2; subjects with mild illness at baseline, placebo 18.4)?
**A.** Its value is 13.2 days.
